Reference: PubChem BioAssay (NCI)
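96-well plates; 48 h exposure; 5 concentrations. Endpoints by linear interpolation between flanking doses. Not reached: highest tested concentration assigned. Abbreviation: GI50, concentration required for 50% inhibition of growth. TGI is the concentration that stops growth completely.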

Tests used:
Experiment in all cases: NCI anticancer screen, dose series, 48 h
BT-549 breast = test system: BT-549 breast
SF-295 CNS = test system: SF-295 CNS
K-562 leukemia = test system: K-562 leukemia
NCI/ADR-RES ovarian = test system: NCI/ADR-RES ovarian
RXF 393 renal = test system: RXF 393 renal
T-47D breast = test system: T-47D breast
OVCAR-5 ovarian = test system: OVCAR-5 ovarian
SF-539 CNS = test system: SF-539 CNS
SK-MEL-5 melanoma = test system: SK-MEL-5 melanoma
MDA-MB-435 = test system: MDA-MB-435

Nc1c(C(=O)Nc2ccccn2)sc2nc3c(cc12)CCCCCC3
GI50 (BT-549 breast): 0.524 µM
TGI (BT-549 breast): 18 µM
GI50 (SF-295 CNS): 0.426 µM
TGI (SF-295 CNS): 5.43 µM
GI50 (K-562 leukemia): 0.204 µM
TGI (K-562 leukemia): 38.5 µM
GI50 (NCI/ADR-RES ovarian): 570 nM
TGI (NCI/ADR-RES ovarian): 41.4 µM
GI50 (RXF 393 renal): 0.903 µM
TGI (RXF 393 renal): 4.07 µM
GI50 (T-47D breast): 2.09 µM
TGI (T-47D breast): 34.6 µM
GI50 (OVCAR-5 ovarian): 2.67 µM
TGI (OVCAR-5 ovarian): 17.9 µM
GI50 (SF-539 CNS): 580 nM
TGI (SF-539 CNS): 3.07 µM
GI50 (SK-MEL-5 melanoma): 906 nM
TGI (SK-MEL-5 melanoma): 7.22 µM
GI50 (MDA-MB-435): 0.143 µM
TGI (MDA-MB-435): 0.509 µM

Cc1nn2c(-c3nc4cc(Cl)c(Cl)cc4[nH]3)c(-c3ccc(F)cc3)nc2s1
GI50 (BT-549 breast): 8.57 µM
TGI (BT-549 breast): > 100 µM
GI50 (SF-295 CNS): 4.92 µM
TGI (SF-295 CNS): > 42.8 µM
GI50 (K-562 leukemia): > 100 µM
TGI (K-562 leukemia): > 100 µM
GI50 (NCI/ADR-RES ovarian): 2700 nM
TGI (NCI/ADR-RES ovarian): > 30.3 µM
GI50 (RXF 393 renal): 1.84 µM
TGI (RXF 393 renal): 5.41 µM
GI50 (T-47D breast): 1.95 µM
TGI (T-47D breast): 14.5 µM
GI50 (OVCAR-5 ovarian): 8.98 µM
TGI (OVCAR-5 ovarian): > 100 µM
GI50 (SF-539 CNS): 2530 nM
TGI (SF-539 CNS): 11.1 µM
GI50 (SK-MEL-5 melanoma): 5860 nM
TGI (SK-MEL-5 melanoma): > 100 µM
GI50 (MDA-MB-435): 4.65 µM
TGI (MDA-MB-435): > 100 µM

Cc1cc(-c2ccco2)cc(C)c1/C=C/c1cncc(-c2nn[nH]n2)c1
GI50 (BT-549 breast): > 25 µM
TGI (BT-549 breast): > 25 µM
GI50 (SF-295 CNS): > 25 µM
TGI (SF-295 CNS): > 25 µM
GI50 (K-562 leukemia): > 25 µM
TGI (K-562 leukemia): > 25 µM
GI50 (NCI/ADR-RES ovarian): > 25000 nM
TGI (NCI/ADR-RES ovarian): > 25 µM
GI50 (RXF 393 renal): > 25 µM
TGI (RXF 393 renal): > 25 µM
GI50 (T-47D breast): > 25 µM
TGI (T-47D breast): > 25 µM
GI50 (OVCAR-5 ovarian): > 25 µM
TGI (OVCAR-5 ovarian): > 25 µM
GI50 (SF-539 CNS): > 25000 nM
TGI (SF-539 CNS): > 25 µM
GI50 (SK-MEL-5 melanoma): > 25000 nM
TGI (SK-MEL-5 melanoma): > 25 µM
GI50 (MDA-MB-435): > 25 µM
TGI (MDA-MB-435): > 25 µM

CCN(CC)C(=O)CCCCCn1c2ccccc2c2c3c(c4c5ccccc5[nH]c4c21)C(=O)N(O)C3=O
GI50 (BT-549 breast): 4.66 µM
TGI (BT-549 breast): 48.5 µM
GI50 (SF-295 CNS): 6.07 µM
TGI (SF-295 CNS): 55.7 µM
GI50 (K-562 leukemia): 4.18 µM
TGI (K-562 leukemia): > 100 µM
GI50 (NCI/ADR-RES ovarian): 3400 nM
TGI (NCI/ADR-RES ovarian): > 100 µM
GI50 (RXF 393 renal): 4.01 µM
TGI (RXF 393 renal): > 100 µM
GI50 (T-47D breast): 4.12 µM
TGI (T-47D breast): 52.1 µM
GI50 (OVCAR-5 ovarian): 31.1 µM
TGI (OVCAR-5 ovarian): > 100 µM
GI50 (SF-539 CNS): 1920 nM
TGI (SF-539 CNS): 4.27 µM
GI50 (SK-MEL-5 melanoma): 2000 nM
TGI (SK-MEL-5 melanoma): 5.02 µM
GI50 (MDA-MB-435): 4.04 µM
TGI (MDA-MB-435): 40 µM

Oc1ccc(-c2[nH]c3ccccc3c2-c2nc3ccccc3o2)cc1
GI50 (BT-549 breast): 5.41 µM
TGI (BT-549 breast): 18.8 µM
GI50 (SF-295 CNS): 4.48 µM
TGI (SF-295 CNS): 19.4 µM
GI50 (K-562 leukemia): 3.98 µM
TGI (K-562 leukemia): 21.8 µM
GI50 (NCI/ADR-RES ovarian): 2630 nM
TGI (NCI/ADR-RES ovarian): 9.04 µM
GI50 (RXF 393 renal): 4.24 µM
TGI (RXF 393 renal): 18.9 µM
GI50 (T-47D breast): 3.08 µM
TGI (T-47D breast): 15.4 µM
GI50 (OVCAR-5 ovarian): 4.49 µM
TGI (OVCAR-5 ovarian): 17.2 µM
GI50 (SF-539 CNS): 7560 nM
TGI (SF-539 CNS): 22.1 µM
GI50 (SK-MEL-5 melanoma): 2160 nM
TGI (SK-MEL-5 melanoma): 7.8 µM
GI50 (MDA-MB-435): 2.26 µM
TGI (MDA-MB-435): 8.74 µM

COc1cc2c3c(n(CCCN4CCSCC4)c(=O)c2cc1OC)-c1cc2c(cc1C3=O)OCO2
GI50 (BT-549 breast): 56.7 µM
TGI (BT-549 breast): > 100 µM
GI50 (SF-295 CNS): 19 µM
TGI (SF-295 CNS): > 100 µM
GI50 (K-562 leukemia): 20.2 µM
TGI (K-562 leukemia): 47.8 µM
GI50 (NCI/ADR-RES ovarian): > 100000 nM
TGI (NCI/ADR-RES ovarian): > 100 µM
GI50 (RXF 393 renal): 27.3 µM
TGI (RXF 393 renal): 67.8 µM
GI50 (T-47D breast): > 100 µM
TGI (T-47D breast): > 100 µM
GI50 (OVCAR-5 ovarian): 53.6 µM
TGI (OVCAR-5 ovarian): > 100 µM
GI50 (SF-539 CNS): 18200 nM
TGI (SF-539 CNS): 34.5 µM
GI50 (SK-MEL-5 melanoma): > 100000 nM
TGI (SK-MEL-5 melanoma): > 100 µM
GI50 (MDA-MB-435): > 100 µM
TGI (MDA-MB-435): > 100 µM
